Test results from patent publication US12577213B2 (NINGBO COMBIREG PHARMACEUTICAL TECHNOLOGY CO., LTD., priority 2020, dated 2026).

Tested on: xenograft of human lung cancer NCI-H522 in nude mice
Test: Xenograft tumor growth inhibition, NCI-H522
Format: in vivo, BALB/c nude mice
Conditions: iv., q4d × 6
Method: The embodiment compound was prepared as a 40× stock solution of DMSO and diluted to the administered concentration with saline containing 2.5% Tween 80 (Tween 80) used before;
Male BALB/c nude mice, 4-5 weeks old, were purchased from Beijing Vital River Laboratory Animal Technology Co., Ltd, with a license No. SCXK(Beijing)2012-0001, and the mice were bred in the SPF-class laboratory animal center of Tsinghua University. The tumor lines used in the experiment were: xenograft of human lung cancer NCI-H522 in nude mice, xenograft of human colon cancer HCT-116 in nude mice.
Tumor-bearing animals with good tumor growth and overall condition were selected and sacrificed by cervical dislocation. The tumors were removed under aseptic condition, cut into tumors with 2-3 mm diameter by a scalpel, and inoculated subcutaneously behind the armpit of nude mice by trocar. The tumors grew naturally and were randomly grouped after the tumor volume grew to 105 mm^3, and the administration date of grouping was set as D0 (Day 0).
Grouping experiment, with 7-9 animals in each group, starting from now on, administration was started according to the weight of the animals. During the administration process, the long, short diameter of the tumors and weight of animals were measured every 2-3 days, and the tumor size was calculated by the formula: (½)×long diameter×(short diameter)^2, and the experiment was ended on the 27th day (D27) after grouping. At the end of the experiment, the animals were sacrificed by cervical dislocation, the tumors were peeled off and weighed, and the inhibitory rates of the drugs on tumor growth were calculated. Tumor volume (TV) and relative tumor volume (RTV) were calculated. T test was used to compare the statistical significance of the differences in tumor weight, tumor volume and RTV of the animals in each group.
Calculation formulas are as follows: average tumor weight in the vehicle control group−average tumor weight in the treatment group Tumor inhibition rate (%)=(average tumor weight in the vehicle control group−average tumor weight in the treatment group)[…](average tumor weight in the vehicle control)×100. Tumor volume (TV)=(length×width^2)/2. Relative tumor volume (RTV)=Vt/Vo (wherein, Vo is the TV measured at the time of grouping and administration, and Vt is the TV at each subsequent measurement).
[formula] • Efficacy evaluation criteria: T/C (%)>40 is invalid; • T/C (%)≤40, and P<0.05 is effective after statistical processing. 4.

Structure (SMILES): [2H]C([2H])([2H])Oc1cc(C(=O)Nc2cc3c(cc2Oc2cc(C)cc(C)c2)C(=O)N[C@@H](CC(=O)N(C([2H])([2H])C([2H])([2H])[2H])C([2H])([2H])C([2H])([2H])[2H])C(=O)N3)c(Br)c(OC([2H])([2H])[2H])c1OC([2H])([2H])[2H] [Compound 5, (S)-2-bromo-N-[3-[2-[bis(pentadeuteroethyl)amino]-2-oxoethyl]-7-(3,5-dimethylphenoxy)-2,5-dioxo-2,3,4,5-tetrahydro-1H-benzo[e][1,4]diazepin-8-yl]-3,4,5-tris(trideuteromethoxy)benzamide]
- T/C (%) (12.5 mg/kg): 31.7%
- Tumor weight inhibition (%) (12.5 mg/kg): 72.03%
- T/C (%) (25 mg/kg): 21.2%
- Tumor weight inhibition (%) (25 mg/kg): 84.20%
- T/C (%) (50 mg/kg): 14.2%
- Tumor weight inhibition (%) (50 mg/kg): 90.02%
